Experimental data reported in the supplement of paper PMC10307832.

Tests used:
Test in all cases: relative viability (nuclei count vs DMSO), 5 days (fraction); higher = more cells survive
[1] = compound: Cc1ccc(NC(=O)c2ccc(CN3CCN(C)CC3)cc2)cc1Nc1nc(-c2cccnc2)cs1 [Masitinib] + CC(=O)Nc1cccc(-n2c(=O)n(C3CC3)c(=O)c3c(Nc4ccc(I)cc4F)n(C)c(=O)c(C)c32)c1 [Trametinib] (partner 0.02 µM)
Procedure, shortened: (§1)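 Lung cancer cell lines in 1536-well plates got either a single drug or a fixed anchor-drug dose together with five library-drug doses (not always all listed) in √10 steps, by pin tool, on the day after seeding. Nuclei were counted after 5 days, and relative viability is the treated-to-vehicle ratio of nuclei counts. Values are medians of duplicate plates.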

[2] = compound: Cc1ccc(NC(=O)c2ccc(CN3CCN(C)CC3)cc2)cc1Nc1nc(-c2cccnc2)cs1 [Masitinib] + O=C(CCCCCCC(=O)Nc1ccccc1)NO [Vorinostat] (partner 1 µM)
Procedure, shortened: as §1

[3] = compound: CC1=CC(=CC=C1)NC2=NC(=CS2)C3=CC=NC=C3 + C[C@]1(O)C[C@@H](c2nc(-c3ccc4ccc(-c5ccccc5)nc4c3)c3c(N)nccn32)C1 [Linsitinib] (partner 1 µM)
Procedure, shortened: as §1

[4] = compound: CC1=CC(=CC=C1)NC2=NC(=CS2)C3=CC=NC=C3 + CS(=O)(=O)CCNCc1ccc(-c2ccc3ncnc(Nc4ccc(OCc5cccc(F)c5)c(Cl)c4)c3c2)o1 [Lapatinib] (partner 2 µM)
Procedure, shortened: as §1

## UMC-11
[1]; first compound 0.01 µM
  relative viability: 0.431
[1]; first compound 0.03162 µM
  relative viability: 0.588
[1]; first compound 0.1 µM
  relative viability: 0.617
[1]; first compound 0.3162 µM
  relative viability: 0.627
[1]; first compound 1 µM
  relative viability: 0.804
[2]; first compound 0.01 µM
  relative viability: 0.314
[2]; first compound 0.03162 µM
  relative viability: 0.342
[2]; first compound 0.1 µM
  relative viability: 0.375
[2]; first compound 0.3162 µM
  relative viability: 0.366
[2]; first compound 1 µM
  relative viability: 0.359
[3]; first compound 0.08 µM
  relative viability: 0.983
[3]; first compound 0.253 µM
  relative viability: 1
[3]; first compound 0.8 µM
  relative viability: 1.01
[3]; first compound 2.53 µM
  relative viability: 0.977
[3]; first compound 8 µM
  relative viability: 1.05
[4]; first compound 0.08 µM
  relative viability: 0.839
[4]; first compound 0.253 µM
  relative viability: 0.85
[4]; first compound 0.8 µM
  relative viability: 0.885
[4]; first compound 2.53 µM
  relative viability: 0.934
[4]; first compound 8 µM
  relative viability: 1.02
